The record followed here is US10004792B2, “Peptides and combination of peptides for use in immunotherapy against various cancers” (immatics biotechnologies GmbH, priority 2015, dated 2018).

The target in one experiment is HLA-A*02 (Homo sapiens, UniProt P04439, D140Y/D185E/D98H/E176V/E277Q/G131W/G231S/I119V/I121R/I166T/I218V/L300P/N151K/N90K/P208A/P217A/Q86G/Q94H/R138H/R169H). As to the kind of experiment: MHC binding assay (UV-ligand exchange, beta2m ELISA), HLA-A*02. The following applies: peptide exchange yield, binding to HLA-A*02, UV-ligand exchange, β2m ELISA. The text has this:
(§1) Candidate peptides for T cell based therapies according to the present invention were further tested for their MHC binding capacity (affinity). The individual peptide-MHC complexes were produced by UV-ligand exchange, where a UV-sensitive peptide is cleaved upon UV-irradiation, and exchanged with the peptide of interest as analyzed. Only peptide candidates that can effectively bind and stabilize the peptide-receptive MHC molecules prevent dissociation of the MHC complexes. To determine the yield of the exchange reaction, an ELISA was performed based on the detection of the light chain (β2m) of stabilized MHC complexes. The assay was performed as generally described in Rodenko et al. (Rodenko et al., 2006).
(§2) 96 well MAXISorp plates (NUNC) were coated over night with 2 ug/ml streptavidin in PBS at room temperature, washed 4× and blocked for 1 h at 37° C. in 2% BSA containing blocking buffer. Refolded HLA-A*02:01/MLA-001 monomers served as standards, covering the range of 15-500 ng/ml. Peptide-MHC monomers of the UV-exchange reaction were diluted 100 fold in blocking buffer. Samples were incubated for 1h at 37° C., washed four times, incubated with 2 ug/ml HRP conjugated anti-62m for 1 h at 37° C., washed again and detected with TMB solution that is stopped with […]. Absorption was measured at 450 nm. Candidate peptides that show a high exchange yield (preferably higher than 50%, most preferred higher than 75%) are generally preferred for a generation and production of antibodies or fragments thereof, and/or T cell receptors or fragments thereof, as they show sufficient avidity to the MHC molecules and prevent dissociation of the MHC complexes.
(An ELISA detects its analyte on a solid surface through an enzyme-linked reagent.)

Another experiment relates to HLA-A*24. As to the kind of experiment: MHC binding assay (UV-ligand exchange, beta2m ELISA), HLA-A*24. More on the design: species or system human. The following applies: peptide exchange yield, binding to HLA-A*24, UV-ligand exchange, β2m ELISA.
From the text: as §1, §2

In the next experiment the test system is CD8+ T cells. As to the kind of experiment: In vitro immunogenicity: T-cell priming with aAPCs loaded with peptide/MHC and anti-CD28, multimer staining. The experiment is classed as cell-based, human. The following applies: for Wells positive [%]: in vitro immunogenicity of HLA class I peptides, peptide-specific multimer staining after aAPC priming of CD8+ T cells; for Wells (in vitro immunogenicity): healthy donor CD8+ T cells, three stimulation cycles, multimer readout. From the text:
In order to obtain information regarding the immunogenicity of the TUMAPs of the present invention, the inventors performed investigations using an in vitro T-cell priming assay based on repeated stimulations of CD8+ T cells with artificial antigen presenting cells (aAPCs) loaded with peptide/MHC complexes and anti-CD28 antibody.
In order to perform in vitro stimulations by artificial antigen presenting cells loaded with peptide-MHC complex (pMHC) and anti-CD28 antibody, the inventors first isolated CD8+ T cells from fresh HLA-A*02 leukapheresis products via positive selection using CD8 microbeads (Miltenyi Biotec, Bergisch-Gladbach, Germany) of healthy donors obtained from the University clinics Mannheim, Germany, after informed consent.
PBMCs and isolated CD8+ lymphocytes were incubated in T-cell medium (TCM) until use consisting of RPMI-Glutamax (Invitrogen, Karlsruhe, Germany) supplemented with 10% heat inactivated human AB serum (PAN-Biotech, Aidenbach, Germany), 100 U/ml Penicillin/100 μg/ml Streptomycin (Cambrex, Cologne, Germany), 1 mM sodium pyruvate (CC Pro, Oberdorla, Germany), 20 µg/ml Gentamycin (Cambrex). 2.5 ng/ml IL7 (PromoCell, Heidelberg, Germany) and 10 U/ml IL-2 (Novartis Pharma, Nurnberg, Germany) were also added to the TCM at this step.
Generation of pMHC/anti-CD28 coated beads, T-cell stimulations and readout was performed in a highly defined in vitro system using four different pMHC molecules per stimulation condition and 8 different pMHC molecules per readout condition.
The purified co-stimulatory mouse IgG2a anti human CD28 Ab 9.3 (Jung et al., 1987) was chemically biotinylated using Sulfo-N-hydroxysuccinimidobiotin as recommended by the manufacturer (Perbio, Bonn, Germany). Beads used were 5.6 μm diameter streptavidin coated polystyrene particles (Bangs Laboratories, Illinois, USA).
pMHC used for positive and negative control stimulations were A*0201/MLA-001 (peptide […] (SEQ ID NO. 303) from modified Melan-A/MART-1) and A*0201/DDX5-001 ([…] from DDX5, SEQ ID NO. 304), respectively.
800.000 beads/200 μl were coated in 96-well plates in the presence of 4×12.5 ng different biotin-pMHC, washed and 600 ng biotin anti-CD28 were added subsequently in a volume of 200 μl. Stimulations were initiated in 96-well plates by co-incubating 1×10^6 CD8+ T cells with 2×10^5 washed coated beads in 200 μI TCM supplemented with 5 ng/ml IL-12 (PromoCell) for 3 days at 37° C. Half of the medium was then exchanged by fresh TCM supplemented with 80 U/ml IL-2 and incubating was continued for 4 days at 37° C. This stimulation cycle was performed for a total of three times. For the pMHC multimer readout using 8 different pMHC molecules per condition, a two-dimensional combinatorial coding approach was used as previously described (Andersen et al., 2012) with minor modifications encompassing coupling to 5 different fluorochromes. Finally, multimeric analyses were performed by staining the cells with Live/dead near IR dye (Invitrogen, Karlsruhe, Germany), CD8-FITC antibody clone SK1 (BD, Heidelberg, Germany) and fluorescent pMHC multimers. For analysis, a BD LSRII SORP cytometer equipped with appropriate lasers and filters was used. Peptide specific cells were calculated as percentage of total CD8+ cells. Evaluation of multimeric analysis was done using the FlowJo software (Tree Star, Oreg., USA). In vitro priming of specific multimer+CD8+ lymphocytes was detected by comparing to negative control stimulations.

For “1 (LLYPEPWSV; listed as Homo sapiens) [compound 1]”, the Peptide exchange entry in the experiment with HLA-A*02 was “++++ (>=75% = ++++)”.

As for “245 (SLLDLPLSL; listed as Homo sapiens) [compound 245]”, the Peptide exchange entry in the experiment with HLA-A*02 is given as “++++ (>=75% = ++++)”.

“153 (FISERVEVV; listed as Homo sapiens) [compound 153]”: the Peptide exchange entry in the experiment with HLA-A*02 is recorded as “++++ (>=75% = ++++)”.

Consider “133 (ALLPRLHQL; listed as Homo sapiens) [compound 133]”, for which the Peptide exchange entry in the experiment with HLA-A*02 is recorded as “++++ (>=75% = ++++)”.

With “229 (AILAHLNTV; listed as Homo sapiens) [compound 229]”, the Peptide exchange entry in the experiment with HLA-A*02 is recorded as “++++ (>=75% = ++++)”.

On to “248 (YLDRFLAGV; listed as Homo sapiens) [compound 248]”, for which the Peptide exchange result with HLA-A*02 is given as “++++ (>=75% = ++++)”.

Regarding “100 (ALLGMIIVGV; listed as Homo sapiens) [compound 100]”, the Peptide exchange entry with HLA-A*02 is “+ (<20% = +)”.

Turning to “147 (YLMDDTVEI; listed as Homo sapiens) [compound 147]”, the Peptide exchange result with HLA-A*02 is on record as “++++ (>=75% = ++++)”.

“14 (ILAKDLFEI; listed as Homo sapiens) [compound 14]”: the Peptide exchange result with HLA-A*02 is “++++ (>=75% = ++++)”.

“51 (LLFSRLCGA; listed as Homo sapiens) [compound 51]”: in the experiment with HLA-A*02, the Peptide exchange entry is “++++ (>=75% = ++++)”.

In the case of “126 (QMFQYFITV; listed as Homo sapiens) [compound 126]”, in the experiment with HLA-A*02, the Peptide exchange result is reported as “++++ (>=75% = ++++)”.

Consider “204 (TYELRYFQI; listed as Homo sapiens) [compound 204]”, for which, in the experiment on HLA-A*24, the Peptide exchange result was “++++ (>=75% = ++++)”. Further, the “Wells positive [%]” value with CD8+ T cells was “+ (<20% = +)”.

Regarding “95 (GLLGSLFFL; listed as Homo sapiens) [compound 95]”, the Peptide exchange result with HLA-A*02 is “++++ (>=75% = ++++)”.

“92 (GLLFSLRSV; listed as Homo sapiens) [compound 92]”: in the experiment with HLA-A*02, the Peptide exchange entry is listed as “++++ (>=75% = ++++)”.

Regarding “29 (YLLDPSITL; listed as Homo sapiens) [compound 29]”, the “Wells positive [%]” value with CD8+ T cells is recorded as “+ (<20% = +)”.

For “149 (ILNTHITEL; listed as Homo sapiens) [compound 149]”, the “Wells positive [%]” value in the experiment with CD8+ T cells is recorded as “+ (<20% = +)”.

With “31 (TITETTVEV; listed as Homo sapiens) [compound 31]”, the “Wells positive [%]” value with CD8+ T cells is “+ (<20% = +)”.

As for “285 (HYPPVQVLF; listed as Homo sapiens) [compound 285]”, the “Wells positive [%]” value with CD8+ T cells is given as “+ (<20% = +)”.

As to “82 (FIFDEAEKL; listed as Homo sapiens) [compound 82]”, the Peptide exchange entry with HLA-A*02 was “+ (<20% = +)”.

Consider “84 (ALCPRIHEV; listed as Homo sapiens) [compound 84]”, for which, in the experiment with HLA-A*02, the Peptide exchange result is “++++ (>=75% = ++++)”.

Turning to “296 (TYVDSSHTI; listed as Homo sapiens) [compound 296]”, the “Wells (in vitro immunogenicity)” value with CD8+ T cells was “+ (<20% = +)”.

With “3 (KLEENGDLYL; listed as Homo sapiens) [compound 3]”, in the experiment with HLA-A*02, the Peptide exchange result is “++++ (>=75% = ++++)”.

In the case of “197 (EYSLFPGQVVI; listed as Homo sapiens) [compound 197]”, the “Wells positive [%]” value with CD8+ T cells is recorded as “+ (<20% = +)”.

Turning to “112 (SLGKFTFDV; listed as Homo sapiens) [compound 112]”, the Peptide exchange result with HLA-A*02 is on record as “++++ (>=75% = ++++)”.

Turning to “258 (LLSERFINV; listed as Homo sapiens) [compound 258]”, in the experiment with HLA-A*02, the Peptide exchange entry is “++++ (>=75% = ++++)”.

Consider “129 (RLQDILWFL; listed as Homo sapiens) [compound 129]”, for which the Peptide exchange result with HLA-A*02 was “++++ (>=75% = ++++)”.

In the case of “268 (QYLGQIQHI; listed as Homo sapiens) [compound 268]”, the “Wells positive [%]” value in the experiment with CD8+ T cells is recorded as “+ (<20% = +)”.

Regarding “120 (VTPVTVSAV; listed as Homo sapiens) [compound 120]”, the Peptide exchange entry in the experiment with HLA-A*02 is “+ (<20% = +)”.

In the case of “167 (NYINRILKL; listed as Homo sapiens) [compound 167]”, the Peptide exchange entry with HLA-A*24 was “++++ (>=75% = ++++)”. For the same substance, the “Wells positive [%]” value in the experiment with CD8+ T cells was “+ (<20% = +)”.

Take “293 (FLVDGSWSI; listed as Homo sapiens) [compound 293]”: the “Wells (in vitro immunogenicity)” value in the experiment on CD8+ T cells was “+ (<20% = +)”.

Consider “158 (HYSQELSLLYL; listed as Homo sapiens) [compound 158]”, for which, in the experiment with HLA-A*24, the Peptide exchange result is “++++ (>=75% = ++++)”. Moreover, in the experiment on CD8+ T cells, the “Wells positive [%]” value is on record as “+ (<20% = +)”.

Regarding “16 (YTLDIPVLFGV; listed as Homo sapiens) [compound 16]”, the Peptide exchange entry with HLA-A*02 is recorded as “++++ (>=75% = ++++)”.

In the case of “257 (GLYTDPCGV; listed as Homo sapiens) [compound 257]”, the Peptide exchange result in the experiment with HLA-A*02 was “++++ (>=75% = ++++)”.

Regarding “196 (LYIDRPLPYL; listed as Homo sapiens) [compound 196]”, the “Wells positive [%]” value in the experiment on CD8+ T cells is listed as “++++ (>=70% = ++++)”.

On to “26 (ALQEELTEL; listed as Homo sapiens) [compound 26]”, for which, in the experiment with CD8+ T cells, the “Wells positive [%]” value is on record as “+ (<20% = +)”.

As for “141 (FLDKVLVAA; listed as Homo sapiens) [compound 141]”, the “Wells positive [%]” value in the experiment with CD8+ T cells is “+ (<20% = +)”.

Take “34 (FLLATEVVTV; listed as Homo sapiens) [compound 34]”: the Peptide exchange result with HLA-A*02 is recorded as “++++ (>=75% = ++++)”.

On to “297 (PFLQASPHF; listed as Homo sapiens) [compound 297]”, for which the “Wells (in vitro immunogenicity)” value in the experiment on CD8+ T cells is on record as “++ (20%-49% = ++)”.

Regarding “42 (LLDSVSRL; listed as Homo sapiens) [compound 42]”, the Peptide exchange entry with HLA-A*02 is reported as “+ (<20% = +)”.

In the case of “300 (AYVLRLETL; listed as Homo sapiens) [compound 300]”, the “Wells (in vitro immunogenicity)” value with CD8+ T cells is listed as “+ (<20% = +)”.

As for “269 (YFIDSTNLKTHF; listed as Homo sapiens) [compound 269]”, in the experiment on CD8+ T cells, the “Wells positive [%]” value is recorded as “+ (<20% = +)”.

Consider “159 (LYNKGFIYL; listed as Homo sapiens) [compound 159]”, for which the Peptide exchange entry in the experiment on HLA-A*24 is on record as “++++ (>=75% = ++++)”. Besides, in the experiment on CD8+ T cells, the “Wells positive [%]” value is on record as “++++ (>=70% = ++++)”.

As to “163 (DYLKGLASF; listed as Homo sapiens) [compound 163]”, in the experiment with HLA-A*24, the Peptide exchange entry is reported as “++++ (>=75% = ++++)”. In addition, in the experiment on CD8+ T cells, the “Wells positive [%]” value is “+ (<20% = +)”.

Turning to “165 (DYTTWTALL; listed as Homo sapiens) [compound 165]”, in the experiment with HLA-A*24, the Peptide exchange result is listed as “++++ (>=75% = ++++)”. Moreover, the “Wells positive [%]” value in the experiment with CD8+ T cells is given as “+ (<20% = +)”.
